Data: ChEMBL document CHEMBL3091354, “Tyrosinase and Layer-by-Layer supported tyrosinases in the synthesis of lipophilic catechols with antiinfluenza activity” (Bioorg Med Chem, 2013)
In brackets after ≈: the same amount, converted by molar mass. Activity calls are given as the source filed them. The calls are words filed in the database; no cut-off is given here.

What was measured:
MDCK [1] = assay: Cytotoxicity against MDCK cells assessed as effect on cell morphology at 50 to 100 ug/ml; format: cell-based, Canis lupus familiaris; settings: dog
[2] = test system: Radical scavenging activity; assay: Antioxidant activity assessed as DPPH radical scavenging activity; format: functional
MDCK [3] = assay: Cytotoxicity against MDCK cells assessed as effect on cell viability at 20 ug/ml; format: cell-based, Canis lupus familiaris; settings: dog
MDCK [4] = assay: Cytotoxicity against MDCK cells assessed as effect on cell morphology at 20 ug/ml; format: cell-based, Canis lupus familiaris; settings: dog
MDCK [5] = assay: Cytotoxicity against MDCK cells assessed as effect on cell viability at 50 to 100 ug/ml; format: cell-based, Canis lupus familiaris; settings: dog
Influenza A virus [6] = assay: Antiviral activity against Influenza A/PR8/H1N1 virus infected in MDCK cells assessed as inhibition of virus yield after 24 hrs; format: functional, organism-based
Influenza A virus [7] = assay: Antiviral activity against Influenza A/PR8/H1N1 virus infected in MDCK cells assessed as inhibition of virus yield after 48 hrs; format: functional
Influenza A virus [8] = assay: Antiviral activity against Influenza A/PR8/H1N1 virus infected in MDCK cells assessed as inhibition of virus yield at 10 to 20 ug/ml after 48 hrs; format: functional, organism-based

CCCC(=O)OCCc1ccc(O)c(O)c1 [HYDROXYTYROSOL BUTANOATE]
Activity (MDCK [1]): Toxic
EC50 [2]: 0.58 µg/mL (≈ 2.59 µM)
Activity (MDCK [3]): Non-toxic
Activity (MDCK [4]): Non-toxic
Activity (MDCK [5]): Toxic
IC50 (Influenza A virus [6]): 29.8 µM
inhibition (Influenza A virus [6]): Dose-dependent effect

COC(=O)CCc1ccc(O)cc1
Activity [2]: inactive

COC(=O)CCc1ccc(O)c(O)c1
inhibition (Influenza A virus [7]): inactive
EC50 [2]: 161.9 µg/mL (≈ 825 µM)

CCCC(=O)OCCc1ccc(O)cc1
Activity (Influenza A virus [8]): inactive

CCC(=O)OCCc1ccc(O)c(O)c1
inhibition (INH) (Influenza A virus [7]): 75%
EC50 [2]: 0.56 µg/mL (≈ 2.66 µM)

O=C(O)CCc1ccc(O)cc1
Activity [2]: inactive

O=C(O)CCc1ccc(O)c(O)c1 [DIHYDROCAFFEIC ACID]
inhibition (Influenza A virus [7]): inactive
EC50 [2]: 61.29 µg/mL (≈ 336 µM)

CCCOC(=O)CCc1ccc(O)c(O)c1
inhibition (Influenza A virus [7]): inactive
EC50 [2]: 89.65 µg/mL (≈ 400 µM)

CCCCOC(=O)CCc1ccc(O)c(O)c1
inhibition (Influenza A virus [7]): inactive
EC50 [2]: 58.9 µg/mL (≈ 247 µM)

CC(=O)OCCc1ccc(O)c(O)c1
inhibition (Influenza A virus [7]): inactive
EC50 [2]: 0.57 µg/mL (≈ 2.91 µM)

CCOC(=O)CCc1ccc(O)c(O)c1
inhibition (Influenza A virus [7]): inactive
EC50 [2]: 136.7 µg/mL (≈ 650 µM)

CCCCC(=O)OCCc1ccc(O)cc1
Activity (Influenza A virus [8]): inactive

NC(=O)c1ncn([C@@H]2O[C@H](CO)[C@@H](O)[C@H]2O)n1 [RIBAVIRIN]
IC50 (Influenza A virus [6]): 14 µM

CCCCC(=O)OCCc1ccc(O)c(O)c1
Activity (MDCK [1]): Toxic
EC50 [2]: 0.59 µg/mL (≈ 2.48 µM)
Activity (MDCK [3]): Non-toxic
Activity (MDCK [4]): Non-toxic
Activity (MDCK [5]): Toxic
IC50 (Influenza A virus [6]): 34 µM
inhibition (Influenza A virus [6]): Dose-dependent effect
